± gives the expanded uncertainty stated by the source.
Conditions: Liquid; for vapor or sublimation pressure: Closed cell (Static) method; for mass density: 101.33 kPa, Vibrating tube method

mass density (298.15 K) [kg/m3] | Structure (SMILES) | vapor or sublimation pressure (293.15 K) [kPa] | vapor or sublimation pressure (298.15 K) [kPa] | vapor or sublimation pressure (303.15 K) [kPa] | vapor or sublimation pressure (308.15 K) [kPa] | vapor or sublimation pressure (313.15 K) [kPa]
1036.62 ± 1.2 | CCCC[n+]1ccc(C)cc1.N#CC(=C=[N-])C#N [1-butyl-4-methylpyridinium tricyanomethanide] | – | – | – | – | –
1058.56 ± 0.12 | c1ccsc1 [thiophene] | 8.19 ± 0.13 | 10.4 ± 0.14 | 12.97 ± 0.15 | 16.1 ± 0.17 | 19.4 ± 0.17
1006.75 ± 1.1 | CCCC[N+]1(C)CCCC1.N#CC(=C=[N-])C#N [1-butyl-1-methylpyrrolidinium tricyanomethanide] | – | – | – | – | –

Structure (SMILES) | mass density (298.15 K) [kg/m3] | vapor or sublimation pressure (293.15 K) [kPa] | vapor or sublimation pressure (298.15 K) [kPa] | vapor or sublimation pressure (303.15 K) [kPa] | vapor or sublimation pressure (308.15 K) [kPa] | vapor or sublimation pressure (313.15 K) [kPa]
c1ccncc1 [pyridine] | 982.85 ± 0.11 | 2.1 ± 0.1 | 2.77 ± 0.11 | 3.62 ± 0.11 | 4.68 ± 0.11 | 6 ± 0.11
